Source: US9382228B2 (priority 2013, dated 2016)

Legend:
osteoclast precursors = experiment: cells; type: cell-based; conditions: read-out: Osteoclast assay
Experimental: Osteoclast Tartrate-Resistant Acid Phosphatase Assay
Diluted compound was transferred to a 384-well black clear bottom plate. Two-thousand five hundred osteoclast precursors (Lonza, Walkersville, Md.) were added per well in growth media containing Receptor Activator of Nuclear Factor Kappa-beta ligand (RANKL) and M-CSF (R&D Systems, Minneapolis, Minn.). […] Tartrate-resistant acid phosphatase activity in the supernatant samples was determined using an acid phosphatase assay kit (Sigma, St. Louis, Mo.). Absorbance was measured at 550 nm using a plate reader. Data was analyzed using Prism software (Graphpad, San Diego, Calif.) to calculate IC50 values.

[1] = target: unphosphorylated PDGFRβ kinase (uPDGFRβ, Seq. ID No. 3) (Homo sapiens, UniProt P09619); experiment: biochemical; conditions: uPDGFRb, enzymatic assay, ATP 500 μM
Experimental: Unphosphorylated PDGFRβ (uPDGFRβ) Kinase (Seq. ID No. 3) Assay
In this assay, the oxidation of NADH (thus the decrease at A340 nm) was continuously monitored spectrophometrically. […] The inhibition reaction was started by mixing serial diluted test compound with the above reaction mixture. The absorption at 340 nm was monitored continuously for 4 h at 30° C. on a Polarstar Optima or Synergy 2 plate reader. The reaction rate was calculated using the 1.5 to 2.5 h time frame. Percent inhibition was obtained by comparison of reaction rate with that of a control (i.e. with no test compound). IC50 values were calculated from a series of percent inhibition values determined at a range of inhibitor concentrations using software routines as implemented in the GraphPad Prism software package.

[2] = target: unphosphorylated c-KIT kinase (uKIT, Seq. ID no. 2) (Homo sapiens, UniProt P10721); experiment: biochemical; conditions: uKIT, enzymatic assay, ATP 2000 μM
unphosphorylated c-KIT kinase (uKIT, Seq. ID no. 2), sequence (P10721 with tags, fused parts or gaps): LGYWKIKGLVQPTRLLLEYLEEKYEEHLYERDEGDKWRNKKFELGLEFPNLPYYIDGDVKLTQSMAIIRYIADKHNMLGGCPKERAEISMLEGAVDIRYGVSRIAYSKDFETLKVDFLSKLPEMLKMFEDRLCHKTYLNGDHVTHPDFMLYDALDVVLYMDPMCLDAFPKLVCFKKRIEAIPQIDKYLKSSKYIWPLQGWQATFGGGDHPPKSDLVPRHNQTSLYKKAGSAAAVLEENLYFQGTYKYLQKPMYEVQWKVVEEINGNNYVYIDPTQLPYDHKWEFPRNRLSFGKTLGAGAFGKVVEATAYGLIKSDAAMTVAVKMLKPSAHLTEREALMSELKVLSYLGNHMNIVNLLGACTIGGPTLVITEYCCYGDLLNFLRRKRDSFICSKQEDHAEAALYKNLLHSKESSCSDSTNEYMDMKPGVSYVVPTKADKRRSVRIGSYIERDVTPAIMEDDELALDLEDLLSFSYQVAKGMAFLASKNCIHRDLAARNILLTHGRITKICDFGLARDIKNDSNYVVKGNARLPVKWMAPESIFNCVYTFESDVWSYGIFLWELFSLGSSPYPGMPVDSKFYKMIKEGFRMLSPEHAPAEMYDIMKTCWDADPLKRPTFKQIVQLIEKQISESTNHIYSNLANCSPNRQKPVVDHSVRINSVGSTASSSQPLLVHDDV
Experimental: uKit kinase (Seq. ID No. 2) Assay
In this assay, the oxidation of NADH (thus the decrease at A340 nm) was continuously monitored spectrophometrically. […] The inhibition reaction was started by mixing serial diluted test compound with the above reaction mixture. The absorption at 340 nm was monitored continuously for 4 hours at 30° C. on Synergy 2 plate reader (BioTech).

unphosphorylated PDGFRβ kinase (uPDGFRβ, Seq. ID No. 3), sequence (P09619 557-1106): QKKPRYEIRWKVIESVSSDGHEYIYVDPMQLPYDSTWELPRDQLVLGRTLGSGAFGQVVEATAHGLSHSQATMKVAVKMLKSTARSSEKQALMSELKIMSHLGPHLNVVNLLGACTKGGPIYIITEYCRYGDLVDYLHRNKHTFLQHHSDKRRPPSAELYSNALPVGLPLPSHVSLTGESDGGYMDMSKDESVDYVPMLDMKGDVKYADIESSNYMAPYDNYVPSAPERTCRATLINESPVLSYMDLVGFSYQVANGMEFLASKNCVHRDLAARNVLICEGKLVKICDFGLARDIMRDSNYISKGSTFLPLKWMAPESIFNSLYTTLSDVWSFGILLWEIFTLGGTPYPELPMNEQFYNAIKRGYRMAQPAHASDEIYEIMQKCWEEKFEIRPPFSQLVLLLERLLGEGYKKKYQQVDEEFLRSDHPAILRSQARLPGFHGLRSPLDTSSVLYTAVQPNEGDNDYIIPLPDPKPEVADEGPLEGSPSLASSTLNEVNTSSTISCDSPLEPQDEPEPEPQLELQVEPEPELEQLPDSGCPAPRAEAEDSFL

Compound	IC50 (osteoclast precursors) [nM]	IC50 [1] [nM]	IC50 [2] [nM]
Cc1cc(-c2cc(Oc3ccc(NC(=O)NC(=O)C4CC(C)(C)C4)nc3C)ccn2)on1 [Example 14, 3,3-dimethyl-N-((6-methyl-5-((2-(3-methylisoxazol-5-yl)pyridin-4-yl)oxy)pyridin-2-yl)carbamoyl)cyclobutanecarboxamide]	10 to 100	100 to 1000	
CC(C)C(=O)NC(=O)Nc1ccc(Oc2ccnc(-c3cnn(C)c3)c2)cn1 [Example 24, N-((5-((2-(1-methyl-1H-pyrazol-4-yl)pyridin-4-yl)oxy)pyridin-2-yl)carbamoyl)isobutyramide]	< 10		
CC(C)C(=O)NC(=O)Nc1ccc(Oc2ccnc(-c3cnn(C)c3)c2)c(C(F)(F)F)n1 [Example 82, N-((5-((2-(1-methyl-1H-pyrazol-4-yl)pyridin-4-yl)oxy)-6-(trifluoromethyl)pyridin-2-yl)carbamoyl)isobutyramide]	100 to 1000		
CCC(=O)NC(=O)Nc1ccc(Oc2ccnc(-c3cnc(C)s3)c2)cn1 [Example 98, N-((5-((2-(2-methylthiazol-5-yl)pyridin-4-yl)oxy)pyridin-2-yl)carbamoyl)propionamide]	100 to 1000		
Cn1cc(-c2cc(Oc3ccc(NC(=O)NC(=O)C4CC5CCC4O5)nc3)ccn2)cn1 (stereo not shown) [Example 111, N-((5-((2-(1-methyl-1H-pyrazol-4-yl)pyridin-4-yl)oxy)pyridin-2-yl)carbamoyl)-7-oxabicyclo[2.2.1]heptane-2-carboxamide]	< 10		100 to 1000
Cc1ccc(-c2cc(Oc3ccc(NC(=O)NC(=O)C4(C)CC4)nc3)ccn2)cn1 [Example 114, 1-methyl-N-((5-((6′-methyl-[2,3′-bipyridin]-4-yl)oxy)pyridin-2-yl)carbamoyl)cyclopropanecarboxamide]	< 10		
Cc1ncc(-c2cc(Oc3ccc(NC(=O)NC(=O)C4(C)CC4)nc3)ccn2)s1 [Example 121, 1-methyl-N-((5-((2-(2-methylthiazol-5-yl)pyridin-4-yl)oxy)pyridin-2-yl)carbamoyl)cyclopropanecarboxamide]	< 10		
COC1(C(=O)NC(=O)Nc2ccc(Oc3ccnc(-c4ccc(C5CCN(C)CC5)cc4)c3)c(C)n2)CC1 [Example 144, 1-methoxy-N-((6-methyl-5-((2-(4-(1-methylpiperidin-4-yl)phenyl)pyridin-4-yl)oxy)pyridin-2-yl)carbamoyl)cyclopropanecarboxamide]	< 10		100 to 1000
Cc1cn(-c2cc(Oc3ccc(NC(=O)NC(=O)C4(C)CCC4)nc3C)ccn2)cn1 [Example 147, 1-methyl-N-((6-methyl-5-((2-(4-methyl-1H-imidazol-1-yl)pyridin-4-yl)oxy)pyridin-2-yl)carbamoyl)cyclobutanecarboxamide]	10 to 100		
COC1(C(=O)NC(=O)Nc2ccc(Oc3ccnc(-c4cnn(C)c4)c3)c(C)n2)CCCC1 [Example 150, 1-methoxy-N-((6-methyl-5-((2-(1-methyl-1H-pyrazol-4-yl)pyridin-4-yl)oxy)pyridin-2-yl)carbamoyl)cyclopentanecarboxamide]	10 to 100	100 to 1000	10 to 100
COC1(C(=O)NC(=O)Nc2ccc(Oc3ccnc(-c4cnn(C)c4)c3)cn2)CCCC1 [Example 153, 1-methoxy-N-((5-((2-(1-methyl-1H-pyrazol-4-yl)pyridin-4-yl)oxy)pyridin-2-yl)carbamoyl)cyclopentanecarboxamide]	< 10		
